In patent US20210198277A1, “AMINE-SUBSTITUTED ARYL OR HETEROARYL COMPOUNDS” (Epizyme, Inc., priority 2016, published 2021):
pIC50: −log10 of the molar value.

Target: T1, EHMT1 (Homo sapiens, UniProt Q9H9B1)
T1 sequence (Q9H9B1 1-1298): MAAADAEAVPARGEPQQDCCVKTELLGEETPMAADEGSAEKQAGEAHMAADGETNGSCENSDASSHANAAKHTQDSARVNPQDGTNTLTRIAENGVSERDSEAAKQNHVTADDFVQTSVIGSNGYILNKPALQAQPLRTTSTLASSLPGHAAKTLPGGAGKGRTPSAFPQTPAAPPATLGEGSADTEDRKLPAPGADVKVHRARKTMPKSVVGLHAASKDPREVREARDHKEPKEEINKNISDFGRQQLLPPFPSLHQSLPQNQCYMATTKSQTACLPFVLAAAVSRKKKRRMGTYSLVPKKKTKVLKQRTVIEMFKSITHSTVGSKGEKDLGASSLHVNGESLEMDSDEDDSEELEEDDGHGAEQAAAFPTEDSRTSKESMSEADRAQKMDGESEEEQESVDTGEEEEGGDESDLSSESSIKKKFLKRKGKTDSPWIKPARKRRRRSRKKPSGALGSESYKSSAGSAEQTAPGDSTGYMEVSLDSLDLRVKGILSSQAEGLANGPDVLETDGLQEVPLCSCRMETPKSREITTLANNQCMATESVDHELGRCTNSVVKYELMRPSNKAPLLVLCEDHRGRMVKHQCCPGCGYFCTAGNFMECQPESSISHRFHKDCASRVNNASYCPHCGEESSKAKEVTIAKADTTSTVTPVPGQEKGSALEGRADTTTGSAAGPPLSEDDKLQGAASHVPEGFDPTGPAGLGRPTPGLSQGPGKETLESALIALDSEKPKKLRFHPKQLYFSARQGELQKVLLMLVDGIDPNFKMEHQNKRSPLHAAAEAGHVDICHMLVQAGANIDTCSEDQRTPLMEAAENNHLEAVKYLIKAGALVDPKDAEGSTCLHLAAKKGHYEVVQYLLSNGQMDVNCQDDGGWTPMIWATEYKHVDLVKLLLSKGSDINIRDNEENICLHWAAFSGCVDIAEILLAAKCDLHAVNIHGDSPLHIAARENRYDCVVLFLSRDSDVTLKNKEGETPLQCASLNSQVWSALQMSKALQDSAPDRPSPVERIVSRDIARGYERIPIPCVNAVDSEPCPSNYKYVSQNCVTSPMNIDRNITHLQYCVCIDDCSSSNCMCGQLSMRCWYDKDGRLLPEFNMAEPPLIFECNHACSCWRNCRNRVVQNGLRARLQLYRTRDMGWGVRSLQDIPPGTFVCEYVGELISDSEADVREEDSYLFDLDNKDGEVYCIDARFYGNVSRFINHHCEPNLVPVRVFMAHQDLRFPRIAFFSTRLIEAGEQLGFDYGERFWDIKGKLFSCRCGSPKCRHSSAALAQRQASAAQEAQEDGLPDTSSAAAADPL
Test: EHMT1 enzyme assay on peptide substrate (EHMT1 PEP)
Type: biochemical
Details: Table VI; read-out: EHMT1 PEP IC50

Row | SMILES | pIC50
1 | CNC(=O)C1CCN(c2cc3nc(NC)cc(C)c3cc2OC)C1 (centres unmarked) [Compound 900] | < 5.00
2 | CNc1cc(C2CCOCC2)c2cc(OC)c(OCCCN3CC(O)C3)cc2n1 [Compound 902] | > 7.00
3 | CNc1nc2cc(OCCCN3CCCC3)c(OC)cc2cc1Cl [Compound 903] | 6.00 to 7.00
4 | CNc1cc(C)nc(Nc2ccc(OC)c(C#CCN3CCOCC3)c2)n1 [Compound 904] | 5.00 to 6.00
5 | CNc1cc(C)nc(Nc2ccc(OC)c(OC[C@@H](O)CN3CCCC3)c2)n1 [Compound 905] | 6.00 to 7.00
6 | CNc1ccnc(Nc2ccc(OC)c(OC[C@@H](O)CN3CCC3)c2)n1 [Compound 907] | 6.00 to 7.00
7 | CNc1ccnc(Nc2ccc(OC)c(OC[C@H](O)CN3CCC3)c2)n1 [Compound 908] | > 7.00
8 | CNc1ccnc(Nc2cnc(OC)c(OC[C@@H]3CCN(C)C3)c2)n1 [Compound 912] | > 7.00
9 | CNc1ccnc(Nc2cnc(OC)c(OCCCN3CCC3)c2)n1 [Compound 914] | > 7.00
10 | CNCCCOc1cc(Nc2nccc(NC)n2)ccc1OC [Compound 916] | > 7.00
11 | CNCCCOc1cc(Nc2nccc(NC)n2)cnc1OC [Compound 917] | 6.00 to 7.00
12 | CNC[C@@H](O)COc1cc(Nc2nccc(NC)n2)cnc1OC [Compound 918] | 6.00 to 7.00
13 | CNc1ccnc(Nc2ccc(OC)c(OC[C@@H](CN3CCCC3)OC)c2)n1 [Compound 919] | 5.00 to 6.00
14 | CNc1ccnc(Nc2ccc(OC)c(OC[C@H](CN3CCCC3)OC)c2)n1 [Compound 920] | 6.00 to 7.00
15 | CNC[C@H](COc1cc(Nc2nccc(NC)n2)ccc1OC)OC [Compound 921] | < 5.00
16 | CNC[C@@H](COc1cc(Nc2nccc(NC)n2)ccc1OC)OC [Compound 922] | 5.00 to 6.00
17 | CCN1CC[C@@H](COc2cc(Nc3nccc(NC)n3)ccc2OC)C1 [Compound 927] | > 7.00
18 | CNc1ccnc(Nc2ccc(OC)c(OC[C@@H]3CCN(C4CC4)C3)c2)n1 [Compound 928] | > 7.00
19 | CNc1ccnc(Nc2ccc(OC)c(OC[C@H]3CN(C)CCO3)c2)n1 [Compound 931] | < 5.00
20 | CCN1CCO[C@@H](COc2cc(Nc3nccc(NC)n3)ccc2OC)C1 [Compound 932] | 5.00 to 6.00
21 | CNc1ccnc(Nc2ccc(OC)c(OC[C@H]3CNCCO3)c2)n1 [Compound 933] | 5.00 to 6.00
22 | CNc1ccnc(Nc2ccc(OC)c(OC[C@@H]3CN(C)CCO3)c2)n1 [Compound 936] | < 5.00
23 | CCN1CCO[C@H](COc2cc(Nc3nccc(NC)n3)ccc2OC)C1 [Compound 937] | < 5.00
24 | CNc1ccnc(Nc2ccc(OC)c(OC[C@@H]3CNCCO3)c2)n1 [Compound 938] | < 5.00

Row | SMILES | pIC50
25 | CNc1ccnc(Nc2ccc(OC)c(OC[C@@H](C)CN3CCC3)c2)n1 [Compound 943] | 5.00 to 6.00
26 | CNc1ccnc(Nc2ccc(OC)c(OC[C@H](C)CN3CCC3)c2)n1 [Compound 945] | > 7.00
27 | CCN1CC[C@@H](COc2cc(Nc3nc(C)cc4[nH]ncc34)ncc2OC)C1 [Compound 947] | > 7.00
28 | CNc1cc(C)nc(Nc2cnc(OC)c(OCCCN3CCC3)c2)n1 [Compound 949] | > 7.00
29 | COc1cc2c(C3CCN(C)CC3)nc(N3CCCC3)nc2cc1OCCCN1CC(O)C1 [Compound 950] | 6.00 to 7.00
30 | CCN1CC(COc2cc3nc(NC)nc(C4CCN(C)CC4)c3cc2OC)C1 [Compound 951] | > 7.00
31 | CNc1nc(C2=CC(C)(C)NC(C)(C)C2)c2cc(OC)c(OCCCN3CCCC3)cc2n1 [Compound 961] | 5.00 to 6.00
32 | CNc1cc(C)nc(Nc2ccc(OC)c(OC[C@H](O)CNC3CCC3)c2)n1 [Compound 962] | 6.00 to 7.00
33 | CNc1cc(C)nc(Nc2cnc(OC)c(OC[C@H](O)CN3CCC3)c2)n1 [Compound 963] | > 7.00
34 | CNCCNCc1cc(Nc2nc(C)cc(NC)n2)ccc1OC [Compound 964] | > 7.00
35 | CNc1cc(C)nc(Nc2ccc(OC)c(CNCCN3CCC3)c2)n1 [Compound 965] | > 7.00
36 | CNc1ccnc(Nc2cnc(OC)c(OC[C@@H]3CCN(C4CCC4)C3)n2)n1 [Compound 974] | > 7.00
37 | CNc1cc(C)nc(Nc2ccc(OC)c(OC[C@H](O)CN3CC(C)C3)c2)n1 [Compound 985] | > 7.00
38 | CNc1cc(C)nc(Nc2ccc(OC)c(OC[C@H](O)CN3CC(F)C3)c2)n1 [Compound 986] | 6.00 to 7.00
39 | CNc1cc(C)nc(Nc2ccc(OC)c(CNCCN(C)C)c2)n1 [Compound 990] | > 7.00
40 | CNc1ccnc(Nc2ccc(OC)c(OCC(C)(O)CN3CCC3)c2)n1 (centres unmarked) [Compound 1005] | 5.00 to 6.00
41 | CCN1CCC(O)(COc2cc(Nc3nccc(NC)n3)ccc2OC)C1 (centres unmarked) [Compound 1006] | > 7.00
42 | CCN1CCC(O)(COc2cc(Nc3nccc(NC)n3)ccc2OC)C1 (centres unmarked) [Compound 1007] | 5.00 to 6.00
43 | CNc1ccnc(Nc2ccc(OC)c(OCC(C)CN3CCC3)c2)n1 (centres unmarked) [Compound 1008] | > 7.00
44 | CNCC(C)COc1cc(Nc2nccc(NC)n2)ccc1OC (centres unmarked) [Compound 1009] | 5.00 to 6.00
45 | CNCCC(C)Oc1cc(Nc2nccc(NC)n2)ccc1OC (centres unmarked) [Compound 1011] | 5.00 to 6.00
46 | CNc1ccnc(Nc2ccc(OC)c(OCCC(C)N3CCC3)c2)n1 (centres unmarked) [Compound 1014] | 6.00 to 7.00
47 | CNc1ccnc(Nc2ccc(OC)c(OCCC(C)NC)c2)n1 (centres unmarked) [Compound 1016] | 6.00 to 7.00
